Here are results for 29 molecules from patent publication US20100320428A1, “GASEOUS DIELECTRICS WITH LOW GLOBAL WARMING POTENTIALS” (priority 2006, published 2010).

Data set [1] is described as follows: Dielectric strength by ASTM D2477. The data set is classed as physicochemical. The conditions noted are these: 1 atmosphere pressure, 0.1 inch gap, ambient temperature; ASTM D2477 or from literature.
The nature of data set [2]: Breakdown voltage at maximum system pressure. The conditions noted are these: for Breakdown voltage at maximum pressure: at maximum pressure: 5 atmospheres (73.5 psia), or lower pressure at which the gas liquefies; for Breakdown voltage compared with air: 1 atmosphere and maximum system pressure. The data set is classed as physicochemical.
The conditions of data set [3]: boiling point; Table 2, preferred dielectric compounds; cited from earlier work.
The conditions of data set [4]: gas phase; cited from earlier work.
For data set [5] the following is noted: normal state; cited from earlier work.
For data set [6] the following is noted: atmospheric pressure; cited from earlier work.

SMILES strings stand for the structures. Counter-ions that a name gives are not always drawn. Like-named read-outs stand apart in the source and are kept apart here.

For `CC(F)(F)F` [Gas R143a, 1,1,1-Trifluoroethane], the Dielectric strength in data set [1] is recorded as 5.8 kV/0.1 inch gap. Further, the “Breakdown voltage at maximum pressure” value in data set [2] is 29 kV/0.1 inch gap.

In the case of `Cl` [HCl, hydrogen chloride], the “Breakdown voltage compared with air” value in data set [2] is “greater then air”.

`FC(F)C(F)(F)F` [Gas R125, Pentafluoroethane] gave a Dielectric strength in data set [1] of 6.4 kV/0.1 inch gap. Besides, in data set [2], the “Breakdown voltage at maximum pressure” value was 32 kV/0.1 inch gap. Take `FCF` [Difluoromethane]: in data set [3], the “MY BP” value is −51.7 °C. For `N#CC(F)(F)F` [Trifluoroacetonitrile], the “MY BP” value in data set [3] is −68.8 °C. Consider `FS(F)(F)(F)(F)F` [SF6, Sulfur hexafluoride], for which the Dielectric strength in data set [1] was 14.0 kV/0.1 inch gap. In addition, in data set [4], the “Temperature below which it does not decompose” value is at least 500 °C. In addition, the Toxicity entry in data set [5] is recorded as “non-toxic”. In data set [2], the “Breakdown voltage at maximum pressure” value worked out at 70 kV/0.1 inch gap. In addition, in data set [6], the “Breakdown voltage compared with air” value is given as “nearly three times higher than air”.

Take `N#N` [Nitrogen]: the “MY BP” value in data set [3] was −195.8 °C. For `O=C(C(=O)C(F)F)C(F)F` [1,1,4,4-tetrafluoro-butane-2,3-dione], in data set [3], the “MY BP” value was −81.0 °C. For `FC(F)OC(F)(F)F` [Difluoromethyl trifluoromethyl ether], in data set [3], the “MY BP” value was −35.3 °C. `FC(F)(F)C#CC(F)(F)F` [1,1,1,4,4,4-hexafluoro-2-butyne]: the “MY BP” value in data set [3] was −24.6 °C. For `O=CC(F)(F)F` [trifluoroacetaldehyde], the “MY BP” value in data set [3] was −21.0 °C. As to `CC` [Ethane], the “MY BP” value in data set [3] was −88.6 °C. As to `C#CC(F)(F)F` [3,3,3-trifluoro-propyne], the “MY BP” value in data set [3] is −48.0 °C. On to `Cl` [Hydrogen chloride], for which, in data set [3], the “MY BP” value is −85.0 °C.

Turning to `FC(F)(F)S` [trifluoromethane thiol], the “MY BP” value in data set [3] was −36.7 °C. Consider `FC(F)F` [Trifluoromethane], for which the “MY BP” value in data set [3] was −82.1 °C. On to `N` [Ammonia], for which the “MY BP” value in data set [3] was −33.3 °C. Turning to `FC(F)C(F)F` [1,1,2,2-Tetrafluoroethane], in data set [3], the “MY BP” value was −23.0 °C. `FCC(F)(F)F` [1,1,1,2-Tetrafluoroethane]: in data set [3], the “MY BP” value is −26.1 °C. Take `FC(F)(F)C(F)(F)C(F)(F)F` [Octafluoropropane]: in data set [3], the “MY BP” value was −36.7 °C. For the molecule `COC(F)(F)F` [Ether, methyl trifluoromethyl], the “MY BP” value in data set [3] was −24.0 °C.

The molecule `CC(F)F` [Gas R152a, 1,1-Difluoroethane] registered a Dielectric strength in data set [1] of 5.9 kV/0.1 inch gap. Further, in data set [2], the “Breakdown voltage at maximum pressure” value was found to be 29.5 kV/0.1 inch gap. For `F[Si](F)(F)F` [SiF4, silicon tetrafluoride], the “Breakdown voltage compared with air” value in data set [2] was “greater then air”. On to `FC(F)(F)C(F)(F)F` [Hexafluoroethane], for which the “MY BP” value in data set [3] is −78.2 °C.

Consider `[N-]=[N+]=O` [Nitrous oxide], for which the “MY BP” value in data set [3] is −88.5 °C. With `CC(N)C(=O)O` (racemic) [DL-2-aminopropanoic acid], the “MY BP” value in data set [3] was −50.2 °C. Consider `FC(F)(F)F` [Tetrafluoromethane], for which, in data set [3], the “MY BP” value is −128.1 °C. `CCF` [Fluoroethane]: in data set [3], the “MY BP” value was −37.7 °C. In data set [1], `FCC(F)(F)F` [Gas R134a, 1,1,1,2-Tetrafluoroethane] had a Dielectric strength of 6.6 kV/0.1 inch gap. Besides, the “Breakdown voltage at maximum pressure” value in data set [2] was 33 kV/0.1 inch gap.
